The text below walks through data of ChEMBL document CHEMBL1201862, “PubChem BioAssay data set” (2004).

Each structure is given as a SMILES string. Values joined by “and” are separate entries in the source; they are usually repeats but may differ in a detail not shown here. Equal entries are not always repeated.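 In this assay, cells in 96-well plates receive the compound at five concentrations for 48 hours. Endpoints are linearly interpolated between the surrounding concentrations. Abbreviation: GI50, concentration required for 50% inhibition of growth.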 Active and inactive are the calls of the source. No stated cut-off is given here; in the data, active = GI50 up to about 1.1 µM and inactive = higher.

Test systems include BT-549; UACC-62; OVCAR-8; SR; HOP-62; NCI-H460; OVCAR-4; A549; CAKI-1; ACHN; HCT-116; COLO 205; SK-OV-3; K562; RXF 393; NCI-H23; HCT-15; OVCAR-3; NCI/ADR-RES; SF-295.
Experiment in all cases: inhibition of tumour cell growth, NCI panel, 48 h

Consider `OCc1cn(Cc2ccccc2)c2ccccc12`, for which the GI50 with BT-549 was 6.59 µM (inactive); with UACC-62, 0.646 µM (active); in the test with OVCAR-8, 13 µM (inactive); in the test with SR, 12.4 µM (inactive); with HOP-62, 5.32 µM (inactive); in the test with NCI-H460 it was 0.135 µM (active). For the same molecule, the GI50 with OVCAR-4 was 0.0378 µM (active); with A549 it was 9.02 µM (inactive); with CAKI-1, < 0.0461 µM (active); in the test on ACHN it was 28.1 µM (inactive); in the test on HCT-116, 0.555 µM (active); in the test with COLO 205, 0.444 µM (active). Further, the GI50 in the test with SK-OV-3 was 11 µM (inactive); in the test on K562 it was 4.48 µM (inactive); with RXF 393, < 0.0316 µM (active); with NCI-H23 it was 14.4 µM (inactive); with HCT-15, 10.8 µM; in the test on OVCAR-3, 0.232 µM (active). In addition, the GI50 in the test with NCI/ADR-RES is 15.2 µM (inactive).
For `COc1ccc2oc(=N)c(C(=O)Nc3cccc4ccccc34)cc2c1`, the GI50 with BT-549 was 55.7 µM (inactive); in the test with UACC-62, 2.47 µM (inactive); in the test on SR, 0.29 µM (active); with HOP-62, 11 µM (inactive); in the test on NCI-H460 it was 3.95 µM (inactive); in the test with OVCAR-4, 15.5 µM (inactive). Moreover, the GI50 is 25.1 µM (inactive) in the test with A549; 29.5 µM (inactive) in the test on CAKI-1; 25.5 µM (inactive) with ACHN; 27.7 µM (inactive) in the test on HCT-116; > 100 µM (inactive) in the test on COLO 205; 15.5 µM (inactive) in the test on SK-OV-3. Also, the GI50 in the test on K562 is 0.526 µM (active); in the test on RXF 393, 4.69 µM (inactive); with SF-295, 5.41 µM (inactive); in the test with NCI-H23, 29.4 µM (inactive); in the test on HCT-15, 1.61 µM; with OVCAR-3, 10.4 µM (inactive). Besides, the GI50 in the test on NCI/ADR-RES is 25.8 µM (inactive).
Consider `C=C(Cl)/C(=C\Cl)CCC(Br)C(C)C` (stereo not given), for which the GI50 with BT-549 is > 100 µM (inactive); in the test on UACC-62 it was 51.8 µM (inactive); with SR it was > 100 µM (inactive); in the test on HOP-62, > 100 µM (inactive); in the test on NCI-H460, > 100 µM (inactive); in the test on OVCAR-4 it was 29.2 µM (inactive). In addition, the GI50 in the test on A549, in the test with CAKI-1, in the test on ACHN, with HCT-116, in the test on COLO 205 and with SK-OV-3 was > 100 µM (inactive) each time. For the same molecule, the GI50 in the test with K562 is 36.2 µM (inactive); with RXF 393, 77.3 µM (inactive); in the test with SF-295 it was > 100 µM (inactive); in the test on NCI-H23, > 100 µM (inactive); in the test with OVCAR-3, > 100 µM (inactive); in the test on NCI/ADR-RES it was > 100 µM (inactive).
For `COc1ccc(C2C(C(=O)c3ccccc3)=C(O)C(O)(CC(=O)c3ccccc3)N2c2ccc(OC)cc2)cc1` (stereo not given), the GI50 with BT-549 is 7.55 µM (inactive); in the test on UACC-62, 22.8 µM (inactive); in the test on OVCAR-8, 10.4 µM (inactive); in the test on SR, 4.66 µM (inactive); with HOP-62, 18.8 µM (inactive); in the test on NCI-H460, 24.4 µM (inactive). Moreover, the GI50 in the test on OVCAR-4 was 19.1 µM (inactive); in the test with A549 it was 22.4 µM (inactive); in the test on CAKI-1, 24.5 µM (inactive); in the test on ACHN, 21 µM (inactive); in the test with HCT-116 it was 9.29 µM (inactive); in the test on COLO 205 it was 17.6 µM (inactive). Further, the GI50 in the test with SK-OV-3 was 25.2 µM (inactive); in the test with K562 it was 16.6 µM (inactive); with RXF 393 it was 9.38 µM (inactive); in the test with SF-295, 12.3 µM (inactive); in the test with NCI-H23 it was 21.1 µM (inactive); in the test on HCT-15, 9.38 µM. For the same molecule, the GI50 with OVCAR-3 is 7.67 µM (inactive); in the test on NCI/ADR-RES, 12.5 µM (inactive).
Turning to `CC(C)(C)n1c(=O)[nH]n(C2NN=Cc3cccc4cccc2c34)c1=O` (stereo not given), the GI50 in the test with BT-549 was 21.9 µM (inactive); with UACC-62, 23.9 µM (inactive); in the test on OVCAR-8, 40.3 µM (inactive); in the test on SR, 11.4 µM (inactive); with NCI-H460 it was 30.1 µM (inactive); in the test with OVCAR-4, 42.6 µM (inactive). For the same molecule, the GI50 in the test with A549 was 18.7 µM (inactive); with CAKI-1 it was 27.5 µM (inactive); in the test with HCT-116 it was 38.5 µM (inactive); with COLO 205 it was 30 µM (inactive); in the test with SK-OV-3, 50 µM (inactive); with K562 it was 17.9 µM (inactive). Moreover, the GI50 in the test on RXF 393 was 10.9 µM (inactive); with NCI-H23 it was 31.6 µM (inactive); in the test on HCT-15 it was 31.3 µM; in the test on OVCAR-3, 51.9 µM (inactive); in the test on NCI/ADR-RES, 32.8 µM (inactive).
Turning to `CC(C)C1=C2CCC3(C)C(CCC4C5C6OCC5(CCC6(C)C)CCC43C)C2(C)CC1` (stereo not given), the GI50 with BT-549 was 22.4 µM (inactive); in the test with UACC-62, 17.7 µM (inactive); with OVCAR-8, 17.7 µM (inactive); in the test with SR it was 11.3 µM (inactive); in the test with HOP-62, 18.1 µM (inactive); with NCI-H460, 14 µM (inactive). The GI50 is 25.3 µM (inactive) with OVCAR-4; 17.3 µM (inactive) in the test with A549; 20 µM (inactive) in the test on CAKI-1; 20 µM (inactive) with ACHN; 18.8 µM (inactive) in the test on HCT-116; 16.7 µM (inactive) in the test with COLO 205. Moreover, the GI50 with SK-OV-3 was 58.1 µM (inactive); in the test with RXF 393, 20.6 µM (inactive); in the test on SF-295, 19.7 µM (inactive); with NCI-H23 it was 21.3 µM (inactive); in the test with HCT-15, 19.1 µM; in the test with OVCAR-3 it was 21.3 µM (inactive). Also, the GI50 in the test on NCI/ADR-RES was 18.9 µM (inactive).
Consider `O=S(=O)(O)c1ccc2c(/N=N/c3ccc(S(=O)(=O)O)c4ccccc34)c(O)c(S(=O)(=O)O)cc2c1`, for which the GI50 in the test with BT-549, in the test on UACC-62, in the test with OVCAR-8, with SR, in the test with HOP-62 and in the test on NCI-H460 was > 100 µM (inactive) throughout. Further, the GI50 in the test on OVCAR-4, in the test with CAKI-1, in the test on ACHN, with HCT-116, in the test on COLO 205 and in the test with SK-OV-3 was > 100 µM (inactive) throughout. Also, the GI50 is > 100 µM (inactive) with K562; > 100 µM (inactive) and 63.5 µM (inactive) in the test with RXF 393; > 100 µM (inactive) in the test with SF-295; > 100 µM (inactive) with NCI-H23; above 100 µM in the test on HCT-15; > 100 µM (inactive) in the test with OVCAR-3. The GI50 in the test on NCI/ADR-RES was > 100 µM (inactive).
As for `N#Cc1c(-c2ccc(F)cc2)c(-c2ccc(F)cc2)nn(CCO)c1=O`, the GI50 in the test with BT-549 is 0.879 µM (active); in the test on UACC-62 it was 0.14 µM (active); with SR it was 0.2 µM (active); with HOP-62, 0.493 µM (active); in the test with NCI-H460, 0.237 µM (active); in the test on OVCAR-4, 1.32 µM (inactive). Also, the GI50 with A549 was 0.25 µM (active); with CAKI-1, 1.53 µM (inactive); with ACHN, 0.413 µM (active); in the test with HCT-116, 0.119 µM (active); with COLO 205, 0.24 µM (active); in the test on SK-OV-3, 0.288 µM (active). The GI50 is 0.103 µM (active) in the test with K562; 0.378 µM (active) in the test on RXF 393; 0.224 µM (active) in the test on SF-295; 0.948 µM (active) in the test with NCI-H23; 0.132 µM in the test with HCT-15; 0.242 µM (active) with OVCAR-3. The GI50 with NCI/ADR-RES is 0.805 µM (active).
